The text below walks through data of US20250179057A1, “MEK IMMUNE ONCOLOGY INHIBITORS AND THERAPEUTIC USES THEREOF” (Immuneering Corporation, priority 2022, published 2025).

In general, inhibition refers to how much of the control response was suppressed. One may read the kinetic solubility as the concentration staying in solution when a stock, usually in DMSO, is diluted into the medium. For orientation: Papp A→B means how fast a substance crosses the layer from the apical side. A higher Papp A→B goes with fast passage. One may read the Papp B→A as how fast a substance crosses the layer from the basolateral side. One may read the efflux ratio as the permeability from basolateral to apical divided by that in the opposite direction, in the common usage.

Structures can show the parent of a compound that is named as a salt.

One data set has as its target CYP2C19 (Homo sapiens, UniProt P33261). The data set can be described thus: in vitro. The settings on record: microsomes, pH 7.4.
The target in a further data set is T1, CYP2B6 (Homo sapiens, UniProt P20813).
T1 sequence (P20813 1-491): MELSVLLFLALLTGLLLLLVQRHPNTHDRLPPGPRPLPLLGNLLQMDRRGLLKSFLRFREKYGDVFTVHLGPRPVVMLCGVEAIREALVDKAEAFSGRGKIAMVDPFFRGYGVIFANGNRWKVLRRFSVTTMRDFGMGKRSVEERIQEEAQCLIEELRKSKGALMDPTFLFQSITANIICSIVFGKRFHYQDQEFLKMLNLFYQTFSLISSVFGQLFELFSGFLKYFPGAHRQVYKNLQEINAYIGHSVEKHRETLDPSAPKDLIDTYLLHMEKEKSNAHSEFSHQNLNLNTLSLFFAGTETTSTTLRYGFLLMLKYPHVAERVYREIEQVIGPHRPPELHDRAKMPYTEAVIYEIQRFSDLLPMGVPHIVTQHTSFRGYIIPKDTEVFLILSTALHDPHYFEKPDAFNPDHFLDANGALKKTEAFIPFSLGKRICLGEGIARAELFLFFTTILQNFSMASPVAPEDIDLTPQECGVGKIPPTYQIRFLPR
The data set can be described thus: in vitro. The settings on record: microsomes, pH 7.4.

Data set [1] in a line: Kinetic solubility (PBS pH 7.4; 4 hr). It is filed as physicochemical. Particulars: PBS buffer, pH 7.4, aqueous buffer, kinetic from dmso stock; free base (Table 19); read-out: Kinetic Solubility. The essentials:
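Compound shaken in PBS pH 7.4 for 4 h at room temperature, then centrifuged. Supernatant, diluted with DMSO, quantified by LC-UV peak area against DMSO calibration curves.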

In the next data set the target is CYP3A4 (Homo sapiens, UniProt P08684). The data set can be described thus: in vitro. Particulars: microsomes, pH 7.4.
Chain of CYP3A4 (P08684 whole entry): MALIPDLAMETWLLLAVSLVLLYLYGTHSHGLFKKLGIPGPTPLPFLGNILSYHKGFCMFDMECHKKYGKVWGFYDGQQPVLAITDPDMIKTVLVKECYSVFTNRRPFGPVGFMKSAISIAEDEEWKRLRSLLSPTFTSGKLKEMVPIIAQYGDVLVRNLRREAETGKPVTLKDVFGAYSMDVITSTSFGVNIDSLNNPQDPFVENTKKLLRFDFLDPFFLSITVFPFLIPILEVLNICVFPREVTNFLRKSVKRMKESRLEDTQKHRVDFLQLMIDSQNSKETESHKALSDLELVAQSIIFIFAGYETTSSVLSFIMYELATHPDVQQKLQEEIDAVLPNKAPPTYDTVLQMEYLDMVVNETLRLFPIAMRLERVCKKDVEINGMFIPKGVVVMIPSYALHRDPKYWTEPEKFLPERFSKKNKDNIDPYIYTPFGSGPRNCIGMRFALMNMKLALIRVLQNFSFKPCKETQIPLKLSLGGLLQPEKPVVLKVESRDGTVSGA
The next data set concerns the target T2, CYP2C8 (Homo sapiens, UniProt P10632).
T2 sequence (P10632 1-490): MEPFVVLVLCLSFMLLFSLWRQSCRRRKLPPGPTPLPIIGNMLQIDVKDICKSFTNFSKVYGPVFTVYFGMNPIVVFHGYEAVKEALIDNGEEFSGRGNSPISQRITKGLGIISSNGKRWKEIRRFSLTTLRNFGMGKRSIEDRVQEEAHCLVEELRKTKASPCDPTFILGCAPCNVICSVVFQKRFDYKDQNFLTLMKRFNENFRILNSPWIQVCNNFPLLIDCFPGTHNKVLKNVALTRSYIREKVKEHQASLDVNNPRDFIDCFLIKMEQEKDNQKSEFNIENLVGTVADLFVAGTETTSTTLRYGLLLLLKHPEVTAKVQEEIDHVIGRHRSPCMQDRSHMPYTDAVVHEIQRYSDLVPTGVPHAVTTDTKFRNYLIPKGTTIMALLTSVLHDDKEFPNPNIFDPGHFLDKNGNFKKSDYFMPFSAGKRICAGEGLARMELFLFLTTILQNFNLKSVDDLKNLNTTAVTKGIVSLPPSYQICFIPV
The data set can be described thus: in vitro. Particulars: microsomes, pH 7.4.

A short description of data set [2]: Caco-2 bidirectional permeability (absorption & efflux). Particulars: human. On the technique in general: Caco-2 cells form a polarised layer with tight junctions and transporters.
The target of another data set is CYP2D6 (Homo sapiens, UniProt P10635). The data set can be described thus: in vitro. Particulars: microsomes, pH 7.4.
Chain of CYP2D6 (P10635 whole entry): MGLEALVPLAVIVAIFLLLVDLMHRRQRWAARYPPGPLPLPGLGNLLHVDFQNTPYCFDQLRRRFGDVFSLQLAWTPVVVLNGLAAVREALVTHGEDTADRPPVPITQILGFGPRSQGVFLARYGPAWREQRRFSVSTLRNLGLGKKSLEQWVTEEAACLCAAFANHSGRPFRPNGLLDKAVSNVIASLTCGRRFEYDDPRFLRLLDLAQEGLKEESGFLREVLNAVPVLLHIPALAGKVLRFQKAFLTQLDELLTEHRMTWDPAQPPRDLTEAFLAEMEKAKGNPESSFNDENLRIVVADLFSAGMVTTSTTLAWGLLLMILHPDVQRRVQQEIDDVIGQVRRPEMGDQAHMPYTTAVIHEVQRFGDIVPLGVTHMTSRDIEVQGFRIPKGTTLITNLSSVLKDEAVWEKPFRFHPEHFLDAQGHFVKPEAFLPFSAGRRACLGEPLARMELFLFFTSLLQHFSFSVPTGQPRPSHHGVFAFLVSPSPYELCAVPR

Chain of CYP2C19 (P33261 whole entry): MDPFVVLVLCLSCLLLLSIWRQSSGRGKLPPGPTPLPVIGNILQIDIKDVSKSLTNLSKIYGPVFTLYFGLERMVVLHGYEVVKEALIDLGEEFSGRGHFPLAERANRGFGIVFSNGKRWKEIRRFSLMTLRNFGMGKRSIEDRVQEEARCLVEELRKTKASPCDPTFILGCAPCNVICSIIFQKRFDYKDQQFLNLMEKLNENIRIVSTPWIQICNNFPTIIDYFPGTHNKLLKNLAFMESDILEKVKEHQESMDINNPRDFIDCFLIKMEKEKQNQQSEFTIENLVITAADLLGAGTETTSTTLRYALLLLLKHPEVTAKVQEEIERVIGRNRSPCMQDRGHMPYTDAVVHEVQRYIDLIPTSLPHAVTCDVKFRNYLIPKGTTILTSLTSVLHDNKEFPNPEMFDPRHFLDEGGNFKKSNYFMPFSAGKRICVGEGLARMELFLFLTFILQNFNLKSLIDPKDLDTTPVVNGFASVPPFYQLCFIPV

As for `CNS(=O)(=O)Nc1cccc(Cc2c(CN3CCNCC3)c3cc(Cl)c(OC(=O)N(C)C)cc3oc2=O)c1Cl` [Compound 256, 6-chloro-3-(2-chloro-3-((N-methylsulfamoyl)amino)benzyl)-2-oxo-4-(piperazin-1-ylmethyl)-2H-chromen-7-yl dimethylcarbamate hydrochloride], the inhibition at 30 min, 10 µM on CYP2C19 came out at 40.8%; at CYP2B6, 1.9%; against CYP3A4 it was 61.8%; against CYP2C8, 97%; against CYP2D6, 7.1%. The kinetic solubility at 4 h in data set [1] is over 80 µM. For the same molecule, in data set [2], the Papp A→B at 2 h, 10 μM was 3.59 ×10⁻⁶ cm/s. This molecule also gave a Papp B→A at 2 h, 10 μM in data set [2] of 13.4 ×10⁻⁶ cm/s. Further, the efflux ratio at 2 h, 10 μM in data set [2] came to 3.73.

As for `CCS(=O)(=O)Nc1cccc(Cc2c(CN3CCNCC3)c3cc(Cl)c(OC(=O)N(C)C)cc3oc2=O)c1Cl` [Compound 257, 6-chloro-3-(2-chloro-3-(ethylsulfonamido)benzyl)-2-oxo-4-(piperazin-1-ylmethyl)-2H-chromen-7-yl dimethylcarbamate hydrochloride], the inhibition at 30 min, 10 µM amounted to 47.5% at CYP2C19; 13.7% on CYP2B6; 67.4% on CYP3A4; 97.5% against CYP2C8; 10.1% at CYP2D6. In data set [1], the kinetic solubility at 4 h is over 80 µM. Besides, the Papp A→B at 2 h, 10 μM in data set [2] was 4.08 ×10⁻⁶ cm/s. Further, in data set [2], the Papp B→A at 2 h, 10 μM amounted to 22.1 ×10⁻⁶ cm/s. The efflux ratio at 2 h, 10 μM in data set [2] turned out to be 5.41.
